Legend:
L1210 [1] = assay: Cytotoxicity against L1210 cell proliferation, measured using microculture tetrazolium assay (MTA); assay type: functional, cell-based, Mus musculus
L1210 [2] = assay: Evaluated for the dose-dependent accumulation and percent of cells in G1 phase was determined at a concentration of 20 uM; assay type: functional, Mus musculus
L1210 [3] = assay: Evaluated for the dose-dependent accumulation and percent of cells in G1 phase was determined at a concentration of 50 uM; assay type: functional, Mus musculus
L1210 [4] = assay: Compound was evaluated for the percent stimulation of cell proliferation at a concentration of 10 uM; assay type: functional, Mus musculus
L1210 [5] = assay: Evaluated for the dose-dependent accumulation and percent of cells in G1 phase was determined at a concentration of 5 uM; assay type: functional, Mus musculus
L1210 [6] = assay: Evaluated for the dose-dependent accumulation and percent of cells in G1 phase was determined at a concentration of 25 uM; assay type: functional, Mus musculus
L1210 [7] = assay: Evaluated for the dose-dependent accumulation and percent of cells in G1 phase was determined at a concentration of 10 uM; assay type: functional, Mus musculus

Row | Compound | IC50 (L1210 [1]; Mus musculus, L1210) | further results
1 | CC[C@]12C=C(C(=O)OC)c3c(CCNc4ccc(F)cc4)c4ccccc4n3[C@H]1N(O)CCC2 | 15.4 µM | –
2 | CC[C@]12C=C(C(=O)OC)c3c(CC4Nc5ccc(OC)cc5CC4c4c5n(c6ccccc46)[C@H]4N(O)CCC[C@@]4(CC)C=C5C(=O)OC)c4ccccc4n3[C@H]1N(O)CCC2 (some centres not stated) | 2.2 µM | Cells (L1210 [2]): 69%
3 | CC[C@]12C=C(C(=O)OC)c3c(CC4Nc5ccccc5CC4c4c5n(c6ccccc46)[C@H]4N(O)CCC[C@@]4(CC)C=C5C(=O)OC)c4ccccc4n3[C@H]1N(O)CCC2 (stereo in doubt; 6) | – | IC50 (L1210 [1]; l1210): 71 µM; Cells (L1210 [3]): 4.5%
4 | CC[C@]12C=C(C(=O)OC)c3c(CC4Nc5ccc(Cl)cc5C(Nc5ccc(Cl)cc5)C4c4c5n(c6ccccc46)[C@H]4N(O)CCC[C@@]4(CC)C=C5C(=O)OC)c4ccccc4n3[C@H]1N(O)CCC2 (some centres not stated) | > 10 µM | Stimulation (L1210 [4]): 126%
5 | CC[C@]12C=C(C(=O)OC)c3c(CC4Nc5ccc(F)cc5CC4c4c5n(c6ccccc46)[C@H]4N(O)CCC[C@@]4(CC)C=C5C(=O)OC)c4ccccc4n3[C@H]1N(O)CCC2 (some centres not stated) | 1.8 µM | Cells (L1210 [5]): 81%
6 | CC[C@]12C=C(C(=O)OC)c3c(CC4Nc5cc(OC)c(OC)c(OC)c5CC4c4c5n(c6ccccc46)[C@H]4N(O)CCC[C@@]4(CC)C=C5C(=O)OC)c4ccccc4n3[C@H]1N(O)CCC2 (some centres not stated) | 2.4 µM | Cells (L1210 [5]): 61%
7 | CC[C@]12C=C(C(=O)OC)c3c(CC4Nc5cc(Cl)cc(Cl)c5CC4c4c5n(c6ccccc46)[C@H]4N(O)CCC[C@@]4(CC)C=C5C(=O)OC)c4ccccc4n3[C@H]1N(O)CCC2 (some centres not stated) | > 10 µM | –
8 | CC[C@]12C=C(C(=O)OC)c3c(CC4Nc5ccccc5CC4c4c5n(c6ccccc46)[C@H]4N(O)CCC[C@@]4(CC)C=C5C(=O)OC)c4ccccc4n3[C@H]1N(O)CCC2 (stereo in doubt; 1) | – | IC50 (L1210 [1]; l1210): 2.7 µM; Cells (L1210 [6]): 80%
9 | CC[C@]12C=C(C(=O)OC)c3c(CC4Nc5c(F)cccc5C(Nc5ccccc5F)C4c4c5n(c6ccccc46)[C@H]4N(O)CCC[C@@]4(CC)C=C5C(=O)OC)c4ccccc4n3[C@H]1N(O)CCC2 (some centres not stated) | 14.1 µM | –
10 | CC[C@]12C=C(C(=O)OC)c3c(CC4Nc5ccc(O)cc5C(OC)C4c4c5n(c6ccccc46)[C@H]4N(O)CCC[C@@]4(CC)C=C5C(=O)OC)c4ccccc4n3[C@H]1N(O)CCC2 (some centres not stated) | 0.9 µM | –
11 | CC[C@]12C=C(C(=O)OC)c3c(CC4Nc5cc(Cl)cc(Cl)c5C(Nc5cc(Cl)cc(Cl)c5)C4c4c5n(c6ccccc46)[C@H]4N(O)CCC[C@@]4(CC)C=C5C(=O)OC)c4ccccc4n3[C@H]1N(O)CCC2 (some centres not stated) | > 10 µM | Stimulation (L1210 [4]): 156%
12 | CC[C@]12C=C(C(=O)OC)c3c(CC4Nc5ccc(C(F)(F)F)cc5C(Nc5ccc(C(F)(F)F)cc5)C4c4c5n(c6ccccc46)[C@H]4N(O)CCC[C@@]4(CC)C=C5C(=O)OC)c4ccccc4n3[C@H]1N(O)CCC2 (some centres not stated) | > 10 µM | Stimulation (L1210 [4]): 152%
13 | CCOC(=O)c1ccc(NC2c3cc(C(=O)OCC)ccc3NC(Cc3c4n(c5ccccc35)[C@H]3N(O)CCC[C@@]3(CC)C=C4C(=O)OC)C2c2c3n(c4ccccc24)[C@H]2N(O)CCC[C@@]2(CC)C=C3C(=O)OC)cc1 (some centres not stated) | > 10 µM | Stimulation (L1210 [4]): 118%
14 | CC[C@]12C=C(C(=O)OC)c3c(CC4Nc5ccc(OC)cc5C(OC)C4c4c5n(c6ccccc46)[C@H]4N(O)CCC[C@@]4(CC)C=C5C(=O)OC)c4ccccc4n3[C@H]1N(O)CCC2 (some centres not stated) | 1.7 µM | Cells (L1210 [2]): 81%
15 | CC[C@]12C=C(C(=O)OC)c3c(CC4Nc5ccc(Cl)cc5CC4c4c5n(c6ccccc46)[C@H]4N(O)CCC[C@@]4(CC)C=C5C(=O)OC)c4ccccc4n3[C@H]1N(O)CCC2 (some centres not stated) | 3.6 µM | Cells (L1210 [7]): 77%
16 | CC[C@]12C=C(C(=O)OC)c3c(CC4Nc5c(Cl)cccc5C(Nc5ccccc5Cl)C4c4c5n(c6ccccc46)[C@H]4N(O)CCC[C@@]4(CC)C=C5C(=O)OC)c4ccccc4n3[C@H]1N(O)CCC2 (some centres not stated) | > 10 µM | –

Source: ChEMBL document CHEMBL1134713, “Synthesis of a novel series of cytotoxic bisindole alkaloids” (Bioorg Med Chem Lett, 2001)
